Results taken from article PMC6938011, “Antiplasmodial profile of selected compounds from Malaria Box: in vitro evaluation, speed of action and drug combination studies” (Malaria Journal, 2019).
“Also recorded” adds a separate entry of the source. Where two headings read alike, the source gives them in different places. One block for each compound: values may come before it.

Experiments:
P. falciparum 3D7 strain [1] = test: SYBR Green I inhibition assay for the asexual stages of P. falciparum; type: cell-based, Plasmodium falciparum; conditions: 72 h, read-out: IC50^Pf Average (confidence interval-95%)
Experimental: The P. falciparum 3D7 strain was kept in culture in a humidified incubator at 37 °C in RPMI-1640 medium with 25 mM NaHCO3, 25 mM HEPES (pH 7.4), 11 mM D-glucose, 3.67 mM hypoxanthine and 25 µg/mL gentamicin, supplemented with 0.5% (m/v) AlbuMAX II. The culture medium was changed daily, and the parasitaemia was maintained below 10% with 2.5% haematocrit in human erythrocytes.
The parasites were synchronized through sterile 5% (m/v) D-sorbitol treatment over 10 min at 37 °C for the enrichment of ring-stage parasites. The cultures were pelleted by centrifugation at 600×g over 5 min. The parasitaemia was determined by microscope analysis of thin blood smears stained with Giemsa 10% (v/v) after methanol fixation. The initial parasitaemia was calculated from 1000 red blood cells (RBCs), and cultures were diluted to 0.5% parasitaemia and 2% haematocrit by adding the appropriate volumes of erythrocytes and medium. Parasite aliquots of 180 µL were distributed into 96-well plates previously prepared with 20 µL aliquots of a tenfold concentrated compound. Negative and positive control wells corresponding to non-parasitized erythrocytes and parasite cultures in the absence of compounds were set in parallel. The DMSO concentration was maintained below 0.05% (v/v). The plates were incubated for 72 h at 37 °C in a humidified incubator with a gas mixture of 90% N2, 5% O2 and 5% CO2. After incubation, the culture medium was removed, and the cells were resuspended in 100 µL PBS buffer (116 mM NaCl, 10 mM Na2HPO4, 3 mM KH2PO4) and lysed with 100 µL lysis buffer (20 mM Tris base, 5 mM EDTA, 0.0008% (v/v) Triton X-100, 0.008% (m/v) saponin, pH 8.0) containing 0.002% (v/v) SYBR Green I. Plates were incubated at room temperature for 30 min, and the fluorescence corresponding to the parasitic density was determined using a SpectraMAX Gemini EM plate reader (Molecular Devices Corp., Sunnyvale, CA) (excitation at 485 nm, emission at 535 nm). The half maximal inhibitory concentration (IC50^Pf) was determined by non-linear regression analysis of the resulting concentration-response curve using the software Origin 2016 (OriginLab Corporation).

[2] = tested on: Hepatocarcinoma cells (HepG2); test: Cytotoxicity evaluation, MTT assay; type: cell-based, human; conditions: HepG2, 72 h, read-out: IC50^HepG2, MTT Average (confidence interval-95%)
Experimental: (§1) Hepatocarcinoma cells (HepG2) were cultivated in RPMI medium supplemented with 10% (v/v) fetal bovine serum and 0.2% (v/v) penicillin/streptomycin. The antibiotics were added to the medium to eliminate the potential interference of microbial contamination. Cells were cultivated at 37 °C and 5% CO2; the supplemented medium was changed every 2 days.
(§2) For the experimental procedures, cells were trypsinized and transferred to a 96-well plate at 30,000 cells per well and incubated at 37 °C overnight for cell adhesion. Then, serial dilutions of the inhibitor candidates were added to the plate. Cells without any compounds were used as positive growth controls. The plate was incubated at 37 °C and 5% CO2 for 72 h. After incubation, the highest compound concentration to be considered (highest concentration without precipitation) was observed by microscopy. Cytotoxicity was evaluated by two different methods. The first is a colorimetric assay based on metabolic cell activity in the presence of 3-(4,5-dimethylthiazol-2-yl)-2,5-diphenyltetrazolium bromide (MTT). Briefly, mitochondrial enzymes can convert the MTT dye into the purple insoluble compound formazan. To each well, 20 µL MTT at 5 mg/mL was added, followed by incubation at 37 °C for 3 to 5 h. After incubation, the supernatant was removed, and formazan crystals were solubilized in 100 µL DMSO. The absorbance, which is proportional to the number of viable cells, was determined using a SpectraMAX Plus 384 plate reader (Molecular Devices Corp., Sunnyvale, CA) (λ = 570 nm). The second method is based on the uptake of neutral red, a dye that is retained inside the lysosomes of viable cells. To each well, after removal of culture media, 200 µL neutral red medium 40 µg/mL was added, followed by incubation at 37 °C for 3 to 5 h. After incubation, supernatant was dispensed, and 200 µL 0.5% (v/v) formaldehyde in 1% (m/v) CaCl2 was added to remove excess of the dye for 5 min. Supernatant was dispensed, and 100 µL alcohol-acid solution (50% (v/v) ethanol, 1% (v/v) glacial acetic acid) was added, and the plate was stirred until a homogeneous solution was formed. The absorbance was determined using a SpectraMAX Plus 384 plate reader (Molecular Devices Corp., Sunnyvale, CA) (λ = 540 nm). For both methods, the half maximal inhibitory concentration (IC50^HepG2) was determined by non-linear regression analysis of the resulting concentration-response curve using the software Origin 2016 (OriginLab Corporation).

[3] = tested on: Hepatocarcinoma cells (HepG2); test: Cytotoxicity evaluation, neutral red assay; type: cell-based, human; conditions: HepG2, 72 h, read-out: IC50^HepG2, NR Average (confidence interval-95%)
Experimental: as §1, §2

P. falciparum [4] = test: Combination assays, isobologram analysis (FIC50 pairs); type: cell-based, Plasmodium falciparum; conditions: for Isobologram data, Additive: fraction of FIC50 pairs / Isobologram data, Additive: number of FIC50 pairs / Isobologram data, Antagonistic: number of FIC50 pairs / Isobologram data, Synergic: number of FIC50 pairs / Isobologram data, Antagonistic: fraction of FIC50 pairs: combination with artesunate; for Combination profile with artesunate: isobologram, IC50 equivalent ratios 1:4, 2:3, 1:1, 3:2, 4:1
Experimental: Combinations of anti-malarial candidates with artesunate, an artemisinin derivative, were tested in fixed molar ratios based on the individual IC50 values that were previously determined by the SYBR Green I assay. Traditionally, a line (isobole) of additivity is used to distinguish between additive, synergic, and antagonistic interaction profiles. […] Thus, a systematic consideration of additivity ranges was included in the isobologram analysis, as previously described by Grabovsky and Tallarida. Concentration-response curves of individual compounds were used in the calculation of each pair’s additivity range (area within the upper and lower limits in Figs. 4 and 5). Fractional inhibitory concentration (FIC50) pairs plotted as points inside the additivity range indicate the expected sum of each compound effect, while points above and below the range indicate antagonistic and synergic interactions, respectively. The selected inhibitors were combined with artesunate in the IC50 equivalent ratios of 1:4, 2:3, 1:1, 3:2 and 4:1 for the construction of the isobolograms.

P. falciparum 3D7 strain [5] = tested on: P. falciparum 3D7 strain; set-up: method as in PMID 23798988; conditions: reported potency of Malaria Box compounds ref 13, read-out: Reported IC50^Pf; cited from earlier work
P. falciparum [6] = conditions: in vitro ref 34; cited from earlier work
P. berghei NK65 strain = test: In vivo suppressive parasite growth test against Plasmodium berghei; set-up: species or system Swiss outbred mice; conditions: 20 mg/kg, positive control, P. berghei-infected mice
Experimental: A suppressive parasite growth test was performed in mice infected with P. berghei NK65 strain (originally received from the New York University Medical School), as described previously, with some modifications. Briefly, adult Swiss outbred mice (20 ± 2 g weight) were intraperitoneally inoculated with 1 × 10^5 red blood cells infected with P. berghei. The infected mice were maintained together for at least 2 h and then randomized into groups of 5 animals per cage, which were subsequently administered 50 mg/kg of each compound diluted in 3% (v/v) DMSO by oral gavage daily for 3 days. Two control groups were used in parallel: one was treated with CQ (20 mg/kg) and the other was treated with the vehicle. Blood smears from mouse tails were prepared on days 5 and 7 post-infection and then fixed with methanol, stained with Giemsa 10% (v/v), and examined under the microscope.

[7] = tested on: asexual intraerythrocytic stages of P. falciparum; test: Speed of action studies (microscopy of thin blood smears); type: cell-based, Plasmodium falciparum; conditions: ring-stage parasites; for Parasite morphology during incubation: compound at tenfold the IC50, microscopy up to 36 h; for Speed of action: compound at tenfold the IC50, observed 0-36 h
Experimental: Parasites in thin blood smears were observed by microscopy after 0, 8, 16, 24 and 36 h of incubation.

IC50 (P. falciparum 3D7 strain [1]): 250 nM
Compound: CCn1c(CN2CCN(Cc3ccccc3)CC2)nc2cc(NC(=O)c3cccs3)ccc21 [Compound 5]
IC50 [2]: 90000 nM
IC50 [3]: > 100000 nM
Parasite morphology during incubation [7]: punctual shapes after 16 h
Speed of action [7]: fast-acting and Fast
Isobologram data, Additive: fraction of FIC50 pairs (P. falciparum [4]): 15%
Isobologram data, Additive: number of FIC50 pairs (P. falciparum [4]): 2
Isobologram data, Antagonistic: fraction of FIC50 pairs (P. falciparum [4]): 85%
Isobologram data, Antagonistic: number of FIC50 pairs (P. falciparum [4]): 11
Isobologram data, Synergic: number of FIC50 pairs (P. falciparum [4]): 0
Combination profile with artesunate (P. falciparum [4]; listed as 05): Antagonism
IC50 (P. falciparum 3D7 strain [5]): 512 nM

IC50 (P. falciparum 3D7 strain [1]): 1000 nM
Compound: O=C(Nc1ccc(C23CC4CC(CC(c5ccccc5)(C4)C2)C3)cc1)c1cccs1 [Compound 7]
IC50 [2]: > 25000 nM
IC50 [3]: > 25000 nM
Parasite morphology during incubation [7]: punctual shapes after 16 h
Speed of action [7]: fast-acting and Fast
Isobologram data, Additive: fraction of FIC50 pairs (P. falciparum [4]): 22%
Isobologram data, Additive: number of FIC50 pairs (P. falciparum [4]): 2
Isobologram data, Antagonistic: fraction of FIC50 pairs (P. falciparum [4]): 78%
Isobologram data, Antagonistic: number of FIC50 pairs (P. falciparum [4]): 7
Isobologram data, Synergic: number of FIC50 pairs (P. falciparum [4]): 0
Combination profile with artesunate (P. falciparum [4]; listed as 07): Antagonism
IC50 (P. falciparum 3D7 strain [5]): 826 nM

Second part, the compound before the results:

Compound: C[C@H]1[C@H](OC(=O)CCC(=O)O)O[C@@H]2O[C@@]3(C)CC[C@H]4[C@H](C)CC[C@@H]1[C@@]24OO3 [Artesunate, reference compound]
IC50 (P. falciparum 3D7 strain [1]; Plasmodium falciparum): 17 nM
IC50 ([2]; Homo sapiens): 110000 nM
IC50 ([3]; Homo sapiens): 110000 nM
Isobologram data, Additive: fraction of FIC50 pairs (P. falciparum [4]): 100%
Isobologram data, Additive: number of FIC50 pairs (P. falciparum [4]): 15
Isobologram data, Antagonistic: number of FIC50 pairs (P. falciparum [4]): 0
Isobologram data, Synergic: number of FIC50 pairs (P. falciparum [4]): 0
Combination profile with artesunate (P. falciparum [4]): Additivity
Combination profile with artesunate (P. falciparum [4]; listed as artesunate): additive
IC50 (P. falciparum 3D7 strain [5]): 8 nM
Speed of action (literature) (P. falciparum [6]): fast

Compound: CCN(CC)CCCC(C)Nc1ccnc2cc(Cl)ccc12 (stereo not shown) [Chloroquine, reference compound]
% of reduction of parasitaemia, day 5 after infection (P. berghei NK65 strain): 100%
% of reduction of parasitaemia, day 7 after infection (P. berghei NK65 strain): 100%

Compound: CN1CCN(c2ccc(Nc3c4ccccc4nc4ccccc34)cc2)CC1 [Compound 1]
IC50 (P. falciparum 3D7 strain [1]): 74 nM
IC50 [2]: 3210 nM
IC50 [3]: 3340 nM
Parasite morphology during incubation [7]: pyknotic nuclei formation
Speed of action [7]: Fast
Isobologram data, Additive: fraction of FIC50 pairs (P. falciparum [4]): 8%
Isobologram data, Additive: number of FIC50 pairs (P. falciparum [4]): 1
Isobologram data, Antagonistic: fraction of FIC50 pairs (P. falciparum [4]): 92%
Isobologram data, Antagonistic: number of FIC50 pairs (P. falciparum [4]): 11
Isobologram data, Synergic: number of FIC50 pairs (P. falciparum [4]): 0
Combination profile with artesunate (P. falciparum [4]): antagonistic
Combination profile with artesunate (P. falciparum [4]; listed as 01): Antagonism
IC50 (P. falciparum 3D7 strain [5]): 142 nM

Compound: Brc1ccc(Nc2nc3ccccc3nc2Nc2ccc(Br)cc2)cc1 [Compound 3]
IC50 (P. falciparum 3D7 strain [1]): 340 nM
IC50 [2]: 5100 nM
IC50 [3]: > 6250 nM
Parasite morphology during incubation [7]: punctual shapes after 16 h
Speed of action [7]: Fast
Isobologram data, Additive: fraction of FIC50 pairs (P. falciparum [4]): 38%
Isobologram data, Additive: number of FIC50 pairs (P. falciparum [4]): 5
Isobologram data, Antagonistic: fraction of FIC50 pairs (P. falciparum [4]): 62%
Isobologram data, Antagonistic: number of FIC50 pairs (P. falciparum [4]): 8
Isobologram data, Synergic: number of FIC50 pairs (P. falciparum [4]): 0
Combination profile with artesunate (P. falciparum [4]; listed as 03): Antagonism
IC50 (P. falciparum 3D7 strain [5]): 1060 nM

Compound: O=[N+]([O-])c1ccc(C=NNc2nc3ccccc3[nH]2)cc1 [Compound 4]
IC50 (P. falciparum 3D7 strain [1]): 440 nM
IC50 [2]: > 6250 nM
IC50 [3]: > 6250 nM
Parasite morphology during incubation [7]: young trophozoites were observed after 36 h
Speed of action [7]: slow-acting and Slow
Isobologram data, Additive: fraction of FIC50 pairs (P. falciparum [4]): 8%
Isobologram data, Additive: number of FIC50 pairs (P. falciparum [4]): 1
Isobologram data, Antagonistic: fraction of FIC50 pairs (P. falciparum [4]): 92%
Isobologram data, Antagonistic: number of FIC50 pairs (P. falciparum [4]): 12
Isobologram data, Synergic: number of FIC50 pairs (P. falciparum [4]): 0
Combination profile with artesunate (P. falciparum [4]; listed as 04): Antagonism
IC50 (P. falciparum 3D7 strain [5]): 142 nM

Compound: Fc1ccc2[nH]c3c(NCCCN4CCOCC4)ncnc3c2c1 [Compound 11]
IC50 (P. falciparum 3D7 strain [1]): 1600 nM
IC50 [2]: > 50000 nM
IC50 [3]: > 50000 nM
Parasite morphology during incubation [7]: punctual shapes after 16 h
Speed of action [7]: Fast
Isobologram data, Additive: number of FIC50 pairs (P. falciparum [4]): 0
Isobologram data, Antagonistic: fraction of FIC50 pairs (P. falciparum [4]): 100%
Isobologram data, Antagonistic: number of FIC50 pairs (P. falciparum [4]): 12
Isobologram data, Synergic: number of FIC50 pairs (P. falciparum [4]): 0
Combination profile with artesunate (P. falciparum [4]): antagonistic; also recorded: Antagonism
IC50 (P. falciparum 3D7 strain [5]): 345 nM
